Experiments:
HCMV polymerase = molecular target: T1, HCMV polymerase (Human cytomegalovirus, UniProt P08546); assay: HCMV polymerase assay (scintillation proximity assay), original and modified version; format: biochemical; conditions: SPA; several values per example = repeat determinations, assay version not given; read-out: CMV Polymerase IC50
T1 construct: made in house; host or cells: SF-9 insect cells infected with recombinant baculovirus
Description: The HCMV polymerase assay is performed using a scintillation proximity assay (SPA) as described in several references, such as N.D. Cook, et al., Pharmaceutical Manufacturing International, pages 49-53 (1992); K. Takeuchi, Laboratory Practice, September issue (1992); U.S. Pat. No. 4,568,649 (1986); which are incorporated by reference herein. Reactions are performed in 96-well plates. The assay is conducted in 100 μl volume with 5.4 mM HEPES (pH 7.5), 11.7 MM KCl, 4.5 mM MgCl2, 0.36 mg/ml BSA, and 90 nM ^3H-dTTP. Assays are run with and without CHAPS, (3-[(3-Cholamidopropyl)-dimethylammoniol-1-propane-sulfonate) at a final concentration of 2 mM. HCMV polymerase is diluted in enzyme dilution buffer containing 50% glycerol, 250 mM NaCl, 10 mM HEPES (pH 7.5), 100 μg/ml BSA, and 0.01% sodium azide. The HCMV polymerase, which is expressed in recombinant baculovirus-infected SF-9 cells and purified according to literature procedures, is added at 10% (or 10 μl) of the final reaction volume, i.e., 100 μl. Compounds are diluted in 50% DMSO and 10 μl are added to each well. Control wells contain an equivalent concentration of DMSO. Unless noted otherwise, reactions are initiated via the addition of 6 nM biotinylated poly(dA)-oligo(dT) template/primer to reaction mixtures containing the enzyme, substrate, and compounds of interest. Plates are incubated in a 25° C. or 37° C. H2O bath and terminated via the addition of 40 μl/reaction of 0.5 M EDTA (pH 8) per well. Reactions are terminated within the time-frame during which substrate incorporation is linear and varied depending upon the enzyme and conditions used, i.e., 30 min. for HCMV polymerase. Ten (10) μl of streptavidin-SPA beads (20 mg/ml in PBS/10% glycerol) are added following termination of the reaction. Plates are incubated 10 min. at 37° C., then equilibrated to room temperature, and counted on a Packard Topcount. Linear regressions are performed and IC50's are calculated using computer software.
A modified version of the above HCMV polymerase assay is performed as described above, but with the following changes: Compounds are diluted in 100% DMSO until final dilution into assay buffer. In the previous assay, compounds are diluted in 50% DMSO. 4.5 mM dithiotherotol (DTT) is added to the polymerase buffer.

T1 sequence (P08546 whole entry): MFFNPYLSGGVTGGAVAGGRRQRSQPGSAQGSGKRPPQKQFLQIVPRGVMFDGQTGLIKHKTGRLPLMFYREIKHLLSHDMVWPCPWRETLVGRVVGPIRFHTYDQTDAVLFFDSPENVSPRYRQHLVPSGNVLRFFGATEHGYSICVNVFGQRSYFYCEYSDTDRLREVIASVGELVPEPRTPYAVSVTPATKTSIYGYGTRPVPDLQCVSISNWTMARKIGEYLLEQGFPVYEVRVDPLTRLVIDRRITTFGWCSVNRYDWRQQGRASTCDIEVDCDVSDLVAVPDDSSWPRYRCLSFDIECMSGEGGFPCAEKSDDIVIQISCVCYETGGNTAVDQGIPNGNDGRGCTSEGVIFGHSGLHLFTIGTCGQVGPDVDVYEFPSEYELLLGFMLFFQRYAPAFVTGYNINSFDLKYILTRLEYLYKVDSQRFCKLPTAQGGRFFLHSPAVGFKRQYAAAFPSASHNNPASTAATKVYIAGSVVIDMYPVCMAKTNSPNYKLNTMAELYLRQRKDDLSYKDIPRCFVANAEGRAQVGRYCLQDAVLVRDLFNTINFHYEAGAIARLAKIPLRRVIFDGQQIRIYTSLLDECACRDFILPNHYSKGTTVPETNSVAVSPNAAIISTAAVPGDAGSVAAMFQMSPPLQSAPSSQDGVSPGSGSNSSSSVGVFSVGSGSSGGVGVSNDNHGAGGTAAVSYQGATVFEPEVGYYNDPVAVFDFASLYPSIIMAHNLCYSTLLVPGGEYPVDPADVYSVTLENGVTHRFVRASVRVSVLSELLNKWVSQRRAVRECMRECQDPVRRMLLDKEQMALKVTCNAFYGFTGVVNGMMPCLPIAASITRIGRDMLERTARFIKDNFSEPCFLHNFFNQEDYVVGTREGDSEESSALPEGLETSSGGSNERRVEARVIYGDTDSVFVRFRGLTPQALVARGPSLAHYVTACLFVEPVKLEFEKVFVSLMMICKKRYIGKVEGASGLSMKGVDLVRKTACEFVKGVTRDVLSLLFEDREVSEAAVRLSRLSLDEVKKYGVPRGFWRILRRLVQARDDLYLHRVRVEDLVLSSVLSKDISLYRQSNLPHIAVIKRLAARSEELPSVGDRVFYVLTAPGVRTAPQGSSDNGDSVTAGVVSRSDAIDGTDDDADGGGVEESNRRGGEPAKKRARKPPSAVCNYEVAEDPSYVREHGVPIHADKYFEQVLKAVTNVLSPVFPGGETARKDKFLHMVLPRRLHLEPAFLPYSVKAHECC

Row | IC50 (HCMV polymerase) [µM] | melting point [°C] | SMILES
1 | 0.57 | 145 to 148 | CN(Cc1cc2c3c(c1)c(=O)c(C(=O)NCc1ccc(Cl)cc1)cn3CC(=O)N2C)CC(O)c1ccoc1 (racemic) [Example 4, rac N-(4-chlorobenzyl)-9-{([2-(3-furyl)-2-hydroxyethyl](methyl)amino)methyl}-1-methyl-2,7-dioxo-2,3-dihydro-1H,7H-pyrido[1,2,3-de]quinoxaline-6-carboxamide]
2 | 0.24 | 153 to 155 | CN(Cc1cc2c3c(c1)c(=O)c(C(=O)NCc1ccc(Cl)cc1)cn3CC(=O)N2C)CC(O)c1ccco1 (racemic) [Example 5, rac N-(4-chlorobenzyl)-9-{([2-(2-furyl)-2-hydroxyethyl](methyl)amino)methyl}-1-methyl-2,7-dioxo-2,3-dihydro-1H,7H-pyrido[1,2,3-de]quinoxaline-6-carboxamide]
3 | 0.25 | 157 to 160 | Cc1cc(C(O)CN(C)Cc2cc3c4c(c2)c(=O)c(C(=O)NCc2ccc(Cl)cc2)cn4CC(=O)N3C)c(C)o1 (racemic) [Example 7, rac N-(4-chlorobenzyl)-9-{([2-(2,5-dimethyl-3-furyl)-2-hydroxyethyl](methyl)amino)methyl}-1-methyl-2,7-dioxo-2,3-dihydro-1H,7H-pyrido[1,2,3-de]quinoxaline-6-carboxamide]
4 | 1.1 | 156 to 158 | Cc1cccc(C(O)CN(C)Cc2cc3c4c(c2)c(=O)c(C(=O)NCc2ccc(Cl)cc2)cn4CC(=O)N3C)n1 (racemic) [Example 8, rac N-(4-chlorobenzyl)-9-{([2-hydroxy-2-(6-methylpyridin-2-yl)ethyl](methyl)amino)methyl}-1-methyl-2,7-dioxo-2,3-dihydro-1H,7H-pyrido [1,2,3-de]quinoxaline-6-carboxamide]
5 | 0.24 | 133 to 136 | COc1cc(C(O)CN(C)Cc2cc3c4c(c2)c(=O)c(C(=O)NCc2ccc(Cl)cc2)cn4CC(=O)N3C)ccc1O (racemic) [Example 10, rac N-(4-chlorobenzyl)-9-{([2-hydroxy-2-(4-hydroxy-3-methoxyphenyl)ethyl](methyl)amino)methyl}-1-methyl-2,7-dioxo-2,3-dihydro-1H,7H-pyrido[1,2,3-de]quinoxaline-6-carboxamide]
6 | 0.87 | 121 to 127 | CN(Cc1cc2c3c(c1)c(=O)c(C(=O)NCc1ccc(Cl)cc1)cn3CC(=O)N2C)CC(O)Cc1ccccc1 (racemic) [Example 17, rac N-(4-chlorobenzyl)-9-{[(2-hydroxy-3-phenylpropyl)(methyl)amino]methyl}-1-methyl-2,7-dioxo-2,3-dihydro-1H,7H-pyrido [1,2,3-de]quinoxaline-6-carboxamide]
7 | 0.18 | 154 to 156 | COc1cccc(C(O)CN(C)Cc2cc3c4c(c2)c(=O)c(C(=O)NCc2ccc(Cl)cc2)cn4CC(=O)N3C)c1 (racemic) [Example 18, rac N-(4-chlorobenzyl)-9-{([2-hydroxy-2-(3-methoxyphenyl)ethyl](methyl)amino)methyl}-1-methyl-2,7-dioxo-2,3-dihydro-1H,7H-pyrido[1,2,3-de]quinoxaline-6-carboxamide]
8 | 0.49 | 168 to 170 | CN(Cc1cc2c3c(c1)c(=O)c(C(=O)NCc1ccc(Cl)cc1)cn3CC(=O)N2C)CC(O)c1ncccn1 (racemic) [Example 19, rac N-(4-chlorobenzyl)-9-{([2-hydroxy-2-pyrimidin-2-ylethyl](methyl)amino)methyl}-1-methyl-2,7-dioxo-2,3-dihydro-1H,7H-pyrido [1,2,3-de]quinoxaline-6-carboxamide]
9 | 0.41 | 122 to 126 | CN(Cc1cc2c3c(c1)c(=O)c(C(=O)NCc1ccc(Cl)cc1)cn3CC(=O)N2C)CC(O)c1ccc(C#N)s1 (racemic) [Example 20, rac N-(4-chlorobenzyl)-9-{([2-(5-cyanothein-2-yl)-2-hydroxyethyl](methyl)amino)methyl}-1-methyl-2,7-dioxo-2,3-dihydro-1H,7H-pyrido[1,2,3-de]quinoxaline-6-carboxamide]
10 | 0.88 | 195 to 197 | CN(Cc1cc2c3c(c1)c(=O)c(C(=O)NCc1ccc(Cl)cc1)cn3CC(=O)N2CCO)CC(O)c1cc2ccccc2o1 (racemic) [Example 26, rac 9-{([2-(1-benzofuran-2-yl)-2-hydroxyethyl](methyl)amino)methyl}-N-(4-chlorobenzyl)-1-(2-hydroxyethyl)-2,7-dioxo-2,3-dihydro-1H,7H-pyrido[1,2,3-de]quinoxaline-6-carboxamide]
11 | 0.22 | – | CN(Cc1cc2c3c(c1)c(=O)c(C(=O)NCc1ccc(Cl)cc1)cn3CC(=O)N2C)CC(O)c1ccccc1 (stereo not shown) [Example 1, N-(4-chlorobenzyl)-9-{[(2-hydroxy-2-phenylethyl) (methyl)amino]methyl}-1-methyl-2,7-dioxo-2,3-dihydro-1H,7H-pyrido[1,2,3-de]quinoxaline-6-carboxamide]
12 | 0.3 | – | CN(Cc1cc2c3c(c1)c(=O)c(C(=O)NCc1ccc(Cl)cc1)cn3CC(=O)N2C)C[C@@H](O)c1ccccn1 [Example 9, N-(4-chlorobenzyl)-9-{[[(2R)-2-hydroxy-2-pyridin-2-ylethyl](methyl)amino]methyl}-1-methyl-2,7-dioxo-2,3-dihydro-1H,7H-pyrido[1,2,3-de]quinoxaline-6-carboxamide]
13 | 0.19 | 137 to 139 | CN(Cc1cc2c3c(c1)c(=O)c(C(=O)NCc1ccc(Cl)cc1)cn3CC(=O)N2C)C[C@@H](O)c1ccsc1 [Example 14, N-(4-chlorobenzyl)-9-{[[(2S)-2-hydroxy-2-thien-3-ylethyl](methyl)amino]methyl}-1-methyl-2,7-dioxo-2,3-dihydro-1H,7H-pyrido[1,2,3-de]quinoxaline-6-carboxamide]
14 | 0.49 | 125 to 130 | CN(Cc1cc2c3c(c1)c(=O)c(C(=O)NCc1ccc(Cl)cc1)cn3CC(=O)N2C)C[C@@H](O)c1nccs1 [Example 22, N-(4-chlorobenzyl)-9-{[[(2R)-2-hydroxy-2-(1,3-thiazol-2-yl)ethyl](methyl)amino]methyl}-1-methyl-2,7-dioxo-2,3-dihydro-1H,7H-pyrido[1,2,3-de]quinoxaline-6-carboxamide]
15 | 0.42 | 150 to 152 | CN(Cc1cc2c3c(c1)c(=O)c(C(=O)NCc1ccc(F)cc1)cn3CC(=O)N2C)C[C@@H](O)c1ccco1 [Example 23, N-(4-fluorobenzyl)-9-{[[(2R)-2-(2-furyl)-2-hydroxyethyl](methyl)amino]methyl}-1-methyl-2,7-dioxo-2,3-dihydro-1H,7H-pyrido[1,2,3-de]quinoxaline-6-carboxamide]
16 | 1.87 | 121 to 123 | CN(Cc1cc2c3c(c1)c(=O)c(C(=O)NCc1ccc(F)cc1)cn3CC(=O)N2C)C[C@@H](O)c1ccccn1 [Example 24, N-(4-fluorobenzyl)-9-{[[(2R)-2-hydroxy-2-pyridin-2-ylethyl](methyl)amino]methyl}-1-methyl-2,7-dioxo-2,3-dihydro-1H,7H-pyrido[1,2,3-de]quinoxaline-6-carboxamide]
17 | 0.93 | 108 to 110 | CN(Cc1cc2c3c(c1)c(=O)c(C(=O)NCc1ccc(F)cc1)cn3CC(=O)N2C)C[C@@H](O)c1cccnc1 [Example 25]
18 | 0.004 | – | CN(Cc1cc2c3c(c1)c(=O)c(C(=O)NCc1ccc(Cl)cc1)cn3CC(=O)N2C)C[C@@H](O)c1cc2ccccc2o1 [Example 34, 9-{[[(2R)-2-(1-benzofuran-2-yl)-2-hydroxyethyl](methyl)amino]methyl)-N-(4-chlorobenzyl)-1-methyl-2,7-dioxo-2,3-dihydro-1H,7H-pyrido[1,2,3-de]quinoxaline-6-carboxamide]
19 | 0.18 | – | CN(Cc1cc2c3c(c1)c(=O)c(C(=O)NCc1ccc(Cl)cc1)cn3CC(=O)N2C)C[C@H](O)c1cc2ccccc2o1 [Example 35, 9-{[[(2S)-2-(1-benzofuran-2-yl)-2-hydroxyethyl](methyl)amino]methyl}-N-(4-chlorobenzyl)-1-methyl-2,7-dioxo-2,3-dihydro-1H,7H-pyrido[1,2,3-de]quinoxaline-6-carboxamide]

From patent US20030207877A1, “Pyridoquinoxaline antivirals” (priority 2001, published 2003)
